{"source": "paper PMC4357015", "about": "“Structure, Function and Inhibition of the Phosphoethanolamine Methyltransferases of the Human Malaria Parasites Plasmodium vivax and Plasmodium knowlesi” (Scientific Reports, 2015)", "key": {"[1]": {"target": "T1, PvPMT (Plasmodium vivax, UniProt A5K867)", "T1 sequence (A5K867 1-264)": "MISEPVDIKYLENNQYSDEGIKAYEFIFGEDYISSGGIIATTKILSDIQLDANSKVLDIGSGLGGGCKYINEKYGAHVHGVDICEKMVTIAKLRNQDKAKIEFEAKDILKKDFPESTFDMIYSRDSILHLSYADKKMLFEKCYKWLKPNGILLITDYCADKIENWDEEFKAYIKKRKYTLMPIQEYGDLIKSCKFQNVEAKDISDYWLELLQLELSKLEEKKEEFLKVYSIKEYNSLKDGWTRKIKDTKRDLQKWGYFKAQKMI", "assay": "radiometric PMT transmethylation assay, inhibition of PvPMT", "format": "biochemical", "method": "(§1) Figure 3 Amodiaquine (AQ) and NSC158011 inhibit the activity of PvPMT and PkPMT. Enzyme inhibition assays with different concentrations of Amodiaquine (AQ), NSC158011 and Chloroquine (CQ) were carried out at constant P-Etn (2 mM) and SAM (1.5 mM) concentrations. The activity in the absence of any drug was taken as 100% and % enzyme activity was calculated in the presence of different drug concentrations (100, 500, 1000 μM). To determine the concentration that results in 50% inhibition of enzyme activity (IC50), the data were fitted to a non-linear regression analysis in the following equation Y = 100/(1 + ([X]/IC50)), where Y is % enzyme activity and X is drug concentration using Graph pad software.\n(§2) For enzyme kinetics studies recombinant histidine-tagged proteins were expressed using 1 mM IPTG for 4 h, purified using Ni-affinity purification and dialyzed. As expected, purified proteins migrated in SDS-PAGE gels at approximately 31 kDa. The purified proteins were stored in HEPES-KOH buffer (pH 7.4) at 4°C and were assayed within a month of purification. During this time, the integrity of the protein was assessed by SDS-PAGE. The kinetic properties of enzymes were assessed using radiometric assay wherein incorporation of radioactive labeled methyl donor (100nCi [methyl-^14C] SAM, Perkin elmer NEC363010UC) or (200nCi [methyl-^3H] SAM, Perkin Elmer NET155H250UC) was measured. […]"}, "[2]": {"target": "T2, PkPMT (Plasmodium knowlesi, UniProt A0A384KJX3)", "T2 sequence (A0A384KJX3 1-264)": "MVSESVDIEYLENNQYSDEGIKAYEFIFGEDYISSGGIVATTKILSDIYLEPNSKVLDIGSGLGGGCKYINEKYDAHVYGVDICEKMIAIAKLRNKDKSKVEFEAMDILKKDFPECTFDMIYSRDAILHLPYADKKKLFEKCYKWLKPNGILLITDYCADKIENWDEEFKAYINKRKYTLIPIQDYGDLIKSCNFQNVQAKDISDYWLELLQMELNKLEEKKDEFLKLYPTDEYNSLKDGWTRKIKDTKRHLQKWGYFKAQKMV", "assay": "radiometric PMT transmethylation assay, inhibition of PkPMT", "format": "biochemical", "method": "as §1, §2"}, "[3]": {"target": "T2, PkPMT", "assay": "kinetic parameters of PkPMT, radiometric assay", "format": "biochemical", "settings": "varied substrate, other constant (SAM 1.5 mM or P-Etn 2.0 mM)", "method": "(§3) Figure 2 Analysis of kinetic parameters of P.vivax (top panel) and P. knowlesi PMT enzymes (bottom panel). The Km values for phosphoethanolamine (P-Etn) was determined under standard assay conditions with varying concentrations of P-Eth (0–800 μM) and at constant S-adenosylmethionine (SAM) concentration of 1.5 mM. The Km values for SAM were determined under standard assay conditions with varying concentrations of SAM (0–600 μM) and at constant P-Etn concentration of 2.0 mM. All data were fitted to the Michaelis-Menten equation, v = (kcat [Et][S])/(Km + [S]) using Graph pad software.\n(§4) For enzyme kinetics studies recombinant histidine-tagged proteins were expressed using 1 mM IPTG for 4 h, purified using Ni-affinity purification and dialyzed. As expected, purified proteins migrated in SDS-PAGE gels at approximately 31 kDa. The purified proteins were stored in HEPES-KOH buffer (pH 7.4) at 4°C and were assayed within a month of purification. During this time, the integrity of the protein was assessed by SDS-PAGE. The kinetic properties of enzymes were assessed using radiometric assay wherein incorporation of radioactive labeled methyl donor (100nCi [methyl-^14C] SAM, Perkin elmer NEC363010UC) or (200nCi [methyl-^3H] SAM, Perkin Elmer NET155H250UC) was measured. The enzymatic assay conditions were carried out in 100 μl volume containing 0.1 M Hepes, KOH (pH8.6), 2 mM Na2EDTA and10% glycerol. For NSC158011 related studies, 10% DMSO was added to the reaction mixture. Purified enzyme (322 nM) was used in each reaction and the reactions were incubated at 37°C for 30 minutes, thereafter the reaction was terminated using 1 ml cold water. Afterwards, the product was purified by batch purification using AG (H+ resin) (Biorad # 142-1451) using the protocol provided by the manufacturer. The product was eluted from resin using 1.5 ml of 0.1 N HCl and total radioactivity was measured using the scintillation cocktail (Biosafe II).\n(§5) To determine the Km value for P-Eth, enzymatic reactions were carried out with 0-0.8 mM of P-Eth at constant 1.5 mM SAM. Similarly Km value for SAM was carried with 0–0.6 mM SAM at constant 2 mM P-Ethanolamine (P-Etn). The inhibition of PvPMT and PkPMT by AQ, CQ and NSC158011were also examined using the same radiometric PMT transmethylation assay. Enzyme activity was evaluated at 0, 100, 500 and 1000 μM of the inhibitor at a fixed concentration of P-Eth (2 mM) and SAM (1.5 mM). To calculate IC50 the data was fitted to non-linear regression analysis in the following equation Y = 100/(1 + ([X]/IC50)), where Y is % enzyme activity and X is inhibitor concentration using Graph pad software."}, "[4]": {"target": "T1, PvPMT", "assay": "kinetic parameters of PvPMT, radiometric assay", "format": "biochemical", "settings": "varied substrate, other constant (SAM 1.5 mM or P-Etn 2.0 mM)", "method": "as §3, §4, §5"}, "[5]": {"substrate": "C[S+](CC[C@H](N)C(=O)[O-])C[C@H]1O[C@@H](n2cnc3c(N)ncnc32)[C@H](O)[C@@H]1O", "assay": "kinetic parameters of PvPMT, radiometric assay", "format": "biochemical, Plasmodium vivax", "settings": "other: PvPMT; varied substrate, other constant (SAM 1.5 mM or P-Etn 2.0 mM); 37.0 °C", "method": "as §3, §4\n(§6) To determine the Km value for P-Eth, enzymatic reactions were carried out with 0-0.8 mM of P-Eth at constant 1.5 mM SAM. […]"}, "[6]": {"substrate": "C[S+](CC[C@H](N)C(=O)[O-])C[C@H]1O[C@@H](n2cnc3c(N)ncnc32)[C@H](O)[C@@H]1O", "assay": "kinetic parameters of PkPMT, radiometric assay", "format": "biochemical, Plasmodium knowlesi", "settings": "other: PkPMT; varied substrate, other constant (SAM 1.5 mM or P-Etn 2.0 mM); 37.0 °C", "method": "as §3, §4, §6"}}, "data": [{"molecule": "CCN(CC)CCCC(C)Nc1ccnc2cc(Cl)ccc12", "note": "(stereo not shown) [CQ, chloroquine]", "values": [{"measurement": "IC50", "setting": "[1]", "value": 146, "unit": "µM"}, {"measurement": "IC50", "setting": "[2]", "value": 987, "unit": "µM"}]}, {"molecule": "NCCOP(=O)(O)O", "note": "[P-Etn, phosphoethanolamine]", "values": [{"measurement": "Kcat", "setting": "[3]", "value": "0.00433 ± 0.00033", "unit": "s⁻¹"}, {"measurement": "Km", "setting": "[3]", "value": "100 ± 30", "unit": "µM"}, {"measurement": "Vmax", "setting": "[3]", "value": "86.01 ± 8.35", "unit": "nmolmin^−1 mg^−1Protein"}, {"measurement": "Kcat", "setting": "[4]", "value": "0.00083 ± 0.00017", "unit": "s⁻¹"}, {"measurement": "Km", "setting": "[4]", "value": "210 ± 70", "unit": "µM"}, {"measurement": "Vmax", "setting": "[4]", "value": "18.67 ± 2.93", "unit": "nmolmin^−1 mg^−1Protein"}]}, {"molecule": "C[S+](CC[C@H](N)C(=O)[O-])C[C@H]1O[C@@H](n2cnc3c(N)ncnc32)[C@H](O)[C@@H]1O", "note": "(stereo partly shown) [SAM, S-adenosylmethionine]", "values": [{"measurement": "Vmax", "setting": "[3]", "value": "119.7 ± 15.41", "unit": "nmolmin^−1 mg^−1Protein"}, {"measurement": "Vmax", "setting": "[4]", "value": "12.62 ± 0.95", "unit": "nmolmin^−1 mg^−1Protein"}]}, {"molecule": "PvPMT (Plasmodium vivax Sal-1) (protein) MISEPVDIKYLENNQYSDEGIKAYEFIFGEDYISSGGIIATTKILSDIQLDANSKVLDIGSGLGGGCKYINEKYGAHVHGVDICEKMVTIAKLRNQDKAKIEFEAKDILKKDFPESTFDMIYSRDSILHLSYADKKMLFEKCYKWLKPNGILLITDYCADKIENWDEEFKAYIKKRKYTLMPIQEYGDLIKSCKFQNVEAKDISDYWLELLQLELSKLEEKKEEFLKVYSIKEYNSLKDGWTRKIKDTKRDLQKWGYFKAQKMI", "values": [{"measurement": "Km", "setting": "[5]", "value": "230 ± 70", "unit": "µM"}, {"measurement": "kcat", "setting": "[5]", "value": "0.000667 ± 0.000333", "unit": "s⁻¹"}, {"measurement": "kcat/Km", "setting": "[5]", "value": 2.83, "unit": "M⁻¹ s⁻¹"}]}, {"molecule": "PkPMT (Plasmodium knowlesi strain H) (protein) MVSESVDIEYLENNQYSDEGIKAYEFIFGEDYISSGGIVATTKILSDIYLEPNSKVLDIGSGLGGGCKYINEKYDAHVYGVDICEKMIAIAKLRNKDKSKVEFEAMDILKKDFPECTFDMIYSRDAILHLPYADKKKLFEKCYKWLKPNGILLITDYCADKIENWDEEFKAYINKRKYTLIPIQDYGDLIKSCNFQNVQAKDISDYWLELLQMELNKLEEKKDEFLKLYPTDEYNSLKDGWTRKIKDTKRHLQKWGYFKAQKMV", "values": [{"measurement": "Km", "setting": "[6]", "value": "270 ± 90", "unit": "µM"}, {"measurement": "kcat", "setting": "[6]", "value": "0.00617 ± 0.0005", "unit": "s⁻¹"}, {"measurement": "kcat/Km", "setting": "[6]", "value": 22.8, "unit": "M⁻¹ s⁻¹"}]}]}
